In PubChem BioAssay AID1963835 (Molecular Pharmacology Branch, DTP, NCI, 2024):

System: 699152-130-R-J1-PDC complex spheroid viability
Experiment: Anticancer human tumor 699152-130-R-J1-PDC patient-derived pancreatic carcinoma cell line growth inhibition [POLQ]
Conditions: for IC50: curve of first compound; for viability, T/C: stronger effect = lower value
Summary of the method: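 Patient-derived tumour cells were co-cultured with HUVEC and mesenchymal stem cells as multicellular spheroids at 37 °C. They were treated with POLQ inhibitors (novobiocin, ART-558, RP6685) alone or combined with other agents. Top concentrations were at or near clinical Cmax (otherwise 10 microM; SN-38 at 1 microM), decreasing in half-log steps.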

[1] = second compound 0.0316 µM, first compound 0.0316 µM
[2] = second compound 0.0316 µM, first compound 0.1 µM
[3] = second compound 0.0316 µM, first compound 0.316 µM
[4] = second compound 0.0316 µM, first compound 1 µM
[5] = second compound 0.0316 µM, first compound 3.16 µM
[6] = second compound 0.0316 µM, first compound 10 µM
[7] = second compound 0.1 µM, first compound 0.0316 µM
[8] = second compound 0.1 µM, first compound 0.1 µM
[9] = second compound 0.1 µM, first compound 0.316 µM
[10] = second compound 0.1 µM, first compound 1 µM
[11] = second compound 0.1 µM, first compound 3.16 µM
[12] = second compound 0.1 µM, first compound 10 µM
[13] = second compound 0.316 µM, first compound 0.0316 µM
[14] = second compound 0.316 µM, first compound 0.1 µM
[15] = second compound 0.316 µM, first compound 0.316 µM
[16] = second compound 0.316 µM, first compound 1 µM
[17] = second compound 0.316 µM, first compound 3.16 µM
[18] = second compound 0.316 µM, first compound 10 µM
[19] = second compound 1 µM, first compound 0.0316 µM
[20] = second compound 1 µM, first compound 0.1 µM
[21] = second compound 1 µM, first compound 0.316 µM
[22] = second compound 1 µM, first compound 1 µM
[23] = second compound 1 µM, first compound 3.16 µM
[24] = second compound 1 µM, first compound 10 µM
[25] = second compound 3.16 µM, first compound 0.0316 µM
[26] = second compound 3.16 µM, first compound 0.1 µM
[27] = second compound 3.16 µM, first compound 0.316 µM
[28] = second compound 3.16 µM, first compound 1 µM
[29] = second compound 3.16 µM, first compound 3.16 µM
[30] = second compound 3.16 µM, first compound 10 µM
[31] = second compound 10 µM, first compound 0.0316 µM
[32] = second compound 10 µM, first compound 0.1 µM
[33] = second compound 10 µM, first compound 0.316 µM
[34] = second compound 10 µM, first compound 1 µM
[35] = second compound 10 µM, first compound 3.16 µM
[36] = second compound 10 µM, first compound 10 µM
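Further: spheroids exposed to agents for 7 days before viability reading.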
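Wherever viability, T/C is given: percent of DMSO vehicle control viability so 100% = vehicle and 0% = no viable signal.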

SMILES: COc1cc(C2c3cc4c(cc3C(OC3OC5COC(C)OC5C(O)C3O)C3COC(=O)C23)OCO4)cc(OC)c1O (stereo unspecified) + Cc1cccc(N(C)C(=O)C2C(O)CCN2c2nc(C)cc(C(F)(F)F)c2C#N)c1
- IC50 (second compound 0.0316 µM): 6.73 µM
- IC50 (second compound 0.1 µM): > 10 µM
- IC50 (second compound 0.316 µM): 7.65 µM
- IC50 (second compound 1 µM): > 10 µM
- IC50 (second compound 3.16 µM): > 10 µM
- IC50 (second compound 10 µM): > 10 µM
- viability, T/C [1]: 111%
- viability, T/C [2]: 108%
- viability, T/C [3]: 76.4%
- viability, T/C [4]: 72.2%
- viability, T/C [5]: 52.5%
- viability, T/C [6]: 47.6%
- viability, T/C [7]: 101%
- viability, T/C [8]: 84.6%
- viability, T/C [9]: 72.9%
- viability, T/C [10]: 72.8%
- viability, T/C [11]: 55%
- viability, T/C [12]: 50.8%
- viability, T/C [13]: 102%
- viability, T/C [14]: 96.3%
- viability, T/C [15]: 83.4%
- viability, T/C [16]: 74.2%
- viability, T/C [17]: 58.9%
- viability, T/C [18]: 47.2%
- viability, T/C [19]: 112%
- viability, T/C [20]: 86.1%
- viability, T/C [21]: 81.9%
- viability, T/C [22]: 74.9%
- viability, T/C [23]: 63.7%
- viability, T/C [24]: 47.3%
- viability, T/C [25]: 98%
- viability, T/C [26]: 101%
- viability, T/C [27]: 71.8%
- viability, T/C [28]: 74.4%
- viability, T/C [29]: 62.2%
- viability, T/C [30]: 51.2%
- viability, T/C [31]: 101%
- viability, T/C [32]: 77.7%
- viability, T/C [33]: 70.6%
- viability, T/C [34]: 75.9%
- viability, T/C [35]: 71.1%
- viability, T/C [36]: 55.9%

SMILES: CCCS(=O)(=O)Nc1ccc(F)c(C(=O)c2c[nH]c3ncc(-c4ccc(Cl)cc4)cc23)c1F + Cc1cccc(N(C)C(=O)C2C(O)CCN2c2nc(C)cc(C(F)(F)F)c2C#N)c1
- IC50 (second compound 0.0316 µM): 8.18 µM
- IC50 (second compound 0.1 µM): 8.55 µM
- IC50 (second compound 0.316 µM): 8.18 µM
- IC50 (second compound 1 µM): 8.6 µM
- IC50 (second compound 3.16 µM): 8.56 µM
- IC50 (second compound 10 µM): 8.17 µM
- viability, T/C [1]: 110%
- viability, T/C [2]: 101%
- viability, T/C [3]: 120%
- viability, T/C [4]: 162%
- viability, T/C [5]: 175%
- viability, T/C [6]: 32.2%
- viability, T/C [7]: 105%
- viability, T/C [8]: 103%
- viability, T/C [9]: 126%
- viability, T/C [10]: 143%
- viability, T/C [11]: 199%
- viability, T/C [12]: 36.5%
- viability, T/C [13]: 103%
- viability, T/C [14]: 99.5%
- viability, T/C [15]: 125%
- viability, T/C [16]: 159%
- viability, T/C [17]: 195%
- viability, T/C [18]: 31.6%
- viability, T/C [19]: 109%
- viability, T/C [20]: 112%
- viability, T/C [21]: 141%
- viability, T/C [22]: 152%
- viability, T/C [23]: 172%
- viability, T/C [24]: 36.6%
- viability, T/C [25]: 124%
- viability, T/C [26]: 112%
- viability, T/C [27]: 118%
- viability, T/C [28]: 140%
- viability, T/C [29]: 181%
- viability, T/C [30]: 36.5%
- viability, T/C [31]: 117%
- viability, T/C [32]: 103%
- viability, T/C [33]: 134%
- viability, T/C [34]: 146%
- viability, T/C [35]: 175%
- viability, T/C [36]: 31.7%

SMILES: CCc1c2c(nc3ccc(O)cc13)-c1cc3c(c(=O)n1C2)COC(=O)[C@]3(O)CC + Nc1ccc(C#CCN(C(=O)Cc2ncc(C(F)(F)F)cc2C(F)(F)F)c2ccc(F)cc2)nn1
- IC50 (second compound 0.0316 µM): 0.0602 µM
- IC50 (second compound 0.1 µM): 0.0483 µM
- IC50 (second compound 0.316 µM): 0.0668 µM
- IC50 (second compound 1 µM): 0.0363 µM
- IC50 (second compound 3.16 µM): 0.0555 µM
- IC50 (second compound 10 µM): 0.0495 µM
- viability, T/C (second compound 0.0316 µM, first compound 0.00316 µM): 82.1%
- viability, T/C (second compound 0.0316 µM, first compound 0.01 µM): 55.2%
- viability, T/C [1]: 58.4%
- viability, T/C [2]: 47.2%
- viability, T/C [3]: 36.4%
- viability, T/C [4]: 11.4%
- viability, T/C (second compound 0.1 µM, first compound 0.00316 µM): 83.1%
- viability, T/C (second compound 0.1 µM, first compound 0.01 µM): 57.4%
- viability, T/C [7]: 52%
- viability, T/C [8]: 48.3%
- viability, T/C [9]: 32.6%
- viability, T/C [10]: 12.6%
- viability, T/C (second compound 0.316 µM, first compound 0.00316 µM): 72.7%
- viability, T/C (second compound 0.316 µM, first compound 0.01 µM): 61.6%
- viability, T/C [13]: 55.8%
- viability, T/C [14]: 47.1%
- viability, T/C [15]: 32%
- viability, T/C [16]: 8.12%
- viability, T/C (second compound 1 µM, first compound 0.00316 µM): 74.7%
- viability, T/C (second compound 1 µM, first compound 0.01 µM): 55.2%
- viability, T/C [19]: 51.2%
- viability, T/C [20]: 44.3%
- viability, T/C [21]: 30.5%
- viability, T/C [22]: 14.9%
- viability, T/C (second compound 3.16 µM, first compound 0.00316 µM): 88.7%
- viability, T/C (second compound 3.16 µM, first compound 0.01 µM): 66.4%
- viability, T/C [25]: 54.4%
- viability, T/C [26]: 48.5%
- viability, T/C [27]: 29.6%
- viability, T/C [28]: 10.8%
- viability, T/C (second compound 10 µM, first compound 0.00316 µM): 92.2%
- viability, T/C (second compound 10 µM, first compound 0.01 µM): 71.2%
- viability, T/C [31]: 52.2%
- viability, T/C [32]: 44.2%
- viability, T/C [33]: 27.7%
- viability, T/C [34]: 9.98%
